The data set can be described thus: Stability of tryptophan in fermentation broth with calcium added at molar ratio 0.4. Type of data set: physicochemical. The conditions noted are these: calcium added at molar ratio of 0.4; increase in pH. On the procedure:
, respectively, in the same manner as in Examples 1-1 to 1-3 except that a tryptophan-containing fermentation broth having the composition disclosed in Table 2 was used, and the pH was 8.8 and 9.0, respectively. The sample of Comparative Example 2 was prepared by concentrating the tryptophan-containing fermentation broth without adding calcium hydroxide to the tryptophan-containing fermentation broth. […] The fermentation broth to which the slurry was added was concentrated to a degree of concentration of 30% (w/w) in Example 1-4 and a degree of concentration of 35% (w/w) in Example 1-5. It was confirmed that the fermentation broth gelled and lost fluidity when concentrated to a higher degree of concentration. At this time, in the case of the fermentation broth to which a slurry was not added, only a degree of concentration of about 25.5% (w/w) was achieved.

Each structure is given as a SMILES string.

As for `N[C@@H](Cc1c[nH]c2ccccc12)C(=O)O` [tryptophan], the decomposition of tryptophan entry was “decomposed into tryptamine, indole-acetate, and anthranilic acid”.

(Values after US20230240332A1, “METHOD FOR PREPARING AMINO ACID GRANULE FROM FERMENTATION BROTH” (CJ CHEILJEDANG CORPORATION, priority 2020, published 2023).)
